Our source for the IC50 values is ChEMBL document CHEMBL5728039, “Inhibitors of Bruton's tyrosine kinase and method of their use” (2020).

In this assay the target is Tyrosine-protein kinase BTK (Homo sapiens, UniProt Q06187). The assay is described as follows: TBD: TBD.
Tyrosine-protein kinase BTK, sequence (Q06187 whole entry): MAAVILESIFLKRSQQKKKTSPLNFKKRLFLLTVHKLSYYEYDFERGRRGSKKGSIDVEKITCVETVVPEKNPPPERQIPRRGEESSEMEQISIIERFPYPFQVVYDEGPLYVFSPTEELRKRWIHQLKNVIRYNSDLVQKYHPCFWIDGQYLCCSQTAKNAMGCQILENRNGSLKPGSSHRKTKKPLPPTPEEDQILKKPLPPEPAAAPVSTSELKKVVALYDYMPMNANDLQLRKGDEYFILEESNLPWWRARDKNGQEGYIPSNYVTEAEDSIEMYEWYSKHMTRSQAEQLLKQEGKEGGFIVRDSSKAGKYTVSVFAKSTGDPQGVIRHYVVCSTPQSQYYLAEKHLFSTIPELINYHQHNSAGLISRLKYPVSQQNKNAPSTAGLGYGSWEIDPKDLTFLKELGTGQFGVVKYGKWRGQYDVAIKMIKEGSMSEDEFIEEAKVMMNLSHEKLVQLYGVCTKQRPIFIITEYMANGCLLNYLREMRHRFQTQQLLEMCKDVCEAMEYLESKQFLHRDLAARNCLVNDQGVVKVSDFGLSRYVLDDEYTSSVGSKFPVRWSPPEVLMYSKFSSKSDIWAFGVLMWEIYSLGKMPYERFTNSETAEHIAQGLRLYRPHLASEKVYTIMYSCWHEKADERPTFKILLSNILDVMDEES

One may read the IC50 as the concentration that gives 50% inhibition. Low readings indicate greater potency, high ones weaker potency. For the compound `Cc1cc(Oc2ccccc2)ccc1N1C(=O)Nc2c(C(=O)N[C@@H]3CCCOC3)sc3nccc1c23`, the IC50 amounted to 25.1 nM. Next, `C=CC(=O)N1CCC[C@@H](NC(=O)c2sc3nccc4c3c2NC(=O)N4c2ccc(Oc3cccnn3)cc2)C1`: greater than 1000 nM.

In turn, `CN1CC(NC(=O)c2sc3nccc4c3c2NC(=O)N4c2ccc(Oc3ccccc3)cc2)CC1=O` (stereo not drawn) showed an IC50 of 398 nM.
